Measured values reported in article PMC11859031, “Assessment of the In Vitro Biological Activities of Schiff Base-Synthesized Copper Oxide Nanoparticles as an Anti-Diabetic, Anti-Alzheimer, and Anti-Cancer Agent” (Pharmaceutics, 2025).
Values after ≈ are worked out from the molar mass of the structure shown.

Key:
[1] = molecular target: T1, 5-LOX enzyme (human recombinant) (Homo sapiens, UniProt P09917); assay: 5-Lipoxygenase inhibition assay; type: biochemical; settings: at 100 µg/mL; mean ± SE, n = 3; read-out: 5-LOX Inhib. (%)
T1 construct: purchased Sigma-Aldrich 437996
T1 sequence (P09917 1-674): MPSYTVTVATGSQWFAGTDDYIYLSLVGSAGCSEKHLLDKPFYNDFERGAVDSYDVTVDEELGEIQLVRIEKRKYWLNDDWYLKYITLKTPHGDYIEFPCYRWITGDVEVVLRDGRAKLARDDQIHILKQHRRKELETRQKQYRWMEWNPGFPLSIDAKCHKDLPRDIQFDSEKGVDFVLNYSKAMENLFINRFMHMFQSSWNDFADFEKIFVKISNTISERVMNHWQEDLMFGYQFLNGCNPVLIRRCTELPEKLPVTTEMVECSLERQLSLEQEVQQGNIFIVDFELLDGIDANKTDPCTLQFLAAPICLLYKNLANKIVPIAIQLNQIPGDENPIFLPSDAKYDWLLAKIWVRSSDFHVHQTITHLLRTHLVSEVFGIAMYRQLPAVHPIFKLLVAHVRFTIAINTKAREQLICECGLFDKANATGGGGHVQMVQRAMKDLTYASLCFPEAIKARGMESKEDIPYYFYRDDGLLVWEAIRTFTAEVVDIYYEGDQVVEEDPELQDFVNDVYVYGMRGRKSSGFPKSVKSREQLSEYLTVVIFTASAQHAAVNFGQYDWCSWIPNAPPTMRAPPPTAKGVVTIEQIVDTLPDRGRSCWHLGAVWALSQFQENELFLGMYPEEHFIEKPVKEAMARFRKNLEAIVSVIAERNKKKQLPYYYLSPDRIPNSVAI

[2] = Total antioxidant capacity (TAC), phosphomolybdenum method; settings: samples at 100 µg/mL; mean ± SE, n = 3
Method: 1. Preparation of SB-CuO-NPs
The copper oxide nanoparticles (CuO-NPs) were biosynthesized using a concentrated anhydrous copper sulfate solution (1 mM) as a metal precursor based […]
dissolved in 100 ml of deionized water to form a 0.1 M concentration. The Schiff base (SB) was mixed with the metal solution in a ratio of 4:1. The SB-CuO-NPs was monitored by a color change. They were dried at 80 °C after centrifuging the colloidal solution at 4000 rpm for 15 min.
2. Characterization of the SB-CuO-NPs
The spectra of the SB-CuO-NPs were characterized using a Shimadzu UV-VIS recording spectrophotometer UV-240 after diluting the samples (10-fold) with deionized water at λ 200 - 800 nm. Their surface zeta potentials were measured using the laser zeta meter (Malvern Zetasizer 2000, Malvern, Worcestershire, UK) following […]
Moreover, their average hydrodynamic sizes were determined using the laser diffraction method with multiple scattering techniques employing dynamic light scattering (DLS) (Malvern Zetasizer Nano ZS, Malvern Instruments Ltd., Malvern, United Kingdom) (Murdock et al., 2008). […]
All biological activities were assessed in the prepared samples at equal concentrations (100 µg/mL). […]
After cooling to room temperature, the absorbance was measured at 695 nm against the blank. […] The antioxidant capacity was expressed as mg gallic acid equivalent per gram weight. […]

[3] = Iron reducing power (IRP); settings: samples at 100 µg/mL; mean ± SE, n = 3
Method: ammonium molybdate. Methanol (80%) was used in place of the sample for the blank. The tubes were sealed and incubated in a boiling water bath for 90 minutes.
After cooling to room temperature, the absorbance was measured at 695 nm against the blank. […] was used at the same concentrations as a standard. The antioxidant capacity was expressed as mg gallic acid equivalent per gram weight.
The iron reducing power was determined as µg/mL using the method proposed by Oyaizu (1986). In brief, 1ml of the tested sample (at each concentration) was combined with 1mL of 200mM sodium phosphate buffer (pH 6.6) and 1mL of 1% potassium ferricyanide. […] The absorbance was measured at 700nm against a blank prepared without the sample. […] A high absorbance at 700nm indicates a higher reducing power in the reaction mixture.
(§1) The 1,1-Diphenyl-2-picryl-hydrazyl (DPPH) radical scavenging activities were evaluated using the method described by Rahman et al. An antioxidant substance capable of donating a hydrogen atom to a solution containing DPPH- can reduce the stable free radical, causing the solution to change color from violet to pale yellow.
The remaining DPPH- radical was quantified by measuring the intensity of a light-purple colored DPPH methanol solution in the visible range at 518 nm using a spectroscopic method. […]

DPPH radical scavenging = settings: mean ± SE, n = 3
Method: as §1
The remaining DPPH- radical was quantified by measuring the intensity of a light-purple colored DPPH methanol solution in the visible range at 518 nm using a spectroscopic method. Two mill iliters of a DPPH solution (100 µ M) in ethanol were mixed with 2 mL of the sample (at each concentration). The reaction mixture for each concentration was thoroughly vortexed and then incubated in the dark at room temperature for 30 minutes. The absorbance was then measured spectrophotometrically at 518 nm against a blank (ethanol). For the control, 2 mL of ethanol was added instead of the sample and run simultaneously with the test.
Ascorbic acid was used at the same concentrations as a positive control. P ercent […]
inhibition of the DPPH free radical was calculated. […]

ABTS radical scavenging = settings: mean ± SE, n = 3
Method: The procedure for the 2,2'-azinobis-(3-ethylbenzothiazoline-6-sulfonic acid) (ABTS) […]
solution (7 mM) and potassium persulfate solution (2.4 mM). The working solution was prepared by mixing the two stock solutions in equal quantities and allowing them to react at room temperature in a dark place for 14 hours. The solution was then diluted by mixing 1 mL of ABTS solution with 60 mL of methanol to obtain an absorbance of 0.706 ± 0.01 units at 734 nm using a spectrophotometer. Fresh ABTS solution was prepared for each assay. The tested samples (at each concentration) were allowed to react with 1 mL of the ABTS solution, and the absorbance was taken at 734 nm after 7 minutes using a spectrophotometer. […]

NO radical scavenging = settings: mean ± SE, n = 3
Method: The in vitro biological applications of the SB and SB-CuO-NPs, including antioxidant, scavenging, anti-diabetic, anti-Alzheimer, anti-arthritic, anti-inflammatory, cytotoxic effects, and enzyme inhibition, were assessed using methods described in the literature (See Supplementary Materials).
During the current study, the free radical scavenging capacity of SB-CuO-NPs, SB, and ascorbic acid (positive control) was evaluated using the DPPH, ABTS, and NO radical methods. The scavenging activity is used to predict antioxidant efficacy, a mechanism in which antioxidants inhibit lipid oxidation. The lower IC50 value indicates a stronger ability of the SB-CuO-NPs to act as radical scavengers, whereas the higher IC50 value indicates a lower scavenging activity. […] The lower the IC50 value, the greater the antioxidant activity.

[4] = system: caspase-3 in HepG-2 cells; assay: Caspase-3 ELISA in treated HepG-2 cells; type: cell-based, human; settings: HepG-2 cells treated at the IC50 value, mean ± SE, n = 3
Method: (§2) Following the treatment of HepG-2, Caco-2, A549, and BJ-1 cells with the SB-CuO-NPs at their respective IC50 values, as illustrated in Figure 9 and detailed in Table 5, an assessment of the activities of the caspase-3 and Bcl-2 enzymes was conducted in the treated cells. […] This mechanism ultimately triggers apoptosis. Additionally, the increased activity of caspase-3 results in a decrease in the expression of cyclin D1 and CDK-2 mRNA, thereby promoting the arrest of the G1 phase of the cell cycle. Othman et al. further noted that the biosynthesized M-NPs facilitate apoptosis by inhibiting the expression of the PI3K/AKT and Ras/Raf/ERK protein signaling pathways.
(§3) Invitrogen Corporation, following the manufacturer's instructions.

Bcl-2 in HepG-2 cells = assay: Bcl-2 ELISA in treated HepG-2 cells; type: cell-based, human; settings: HepG-2 cells treated at the IC50 value, mean ± SE, n = 3
Method: as §2, §3

[5] = system: caspase-3 in Caco-2 cells; assay: Caspase-3 ELISA in treated Caco-2 cells; type: cell-based, human; settings: Caco-2 cells treated at the IC50 value, mean ± SE, n = 3
Method: as §2, §3

Bcl-2 in Caco-2 cells = assay: Bcl-2 ELISA in treated Caco-2 cells; type: cell-based, human; settings: Caco-2 cells treated at the IC50 value, mean ± SE, n = 3
Method: as §2, §3

caspase-3 in A549 cells = assay: Caspase-3 ELISA in treated A549 cells; type: cell-based, human; settings: A549 cells treated at the IC50 value, mean ± SE, n = 3
Method: as §2, §3

Bcl-2 in A549 cells = assay: Bcl-2 ELISA in treated A549 cells; type: cell-based, human; settings: A549 cells treated at the IC50 value, mean ± SE, n = 3
Method: as §2, §3

caspase-3 in BJ-1 cells = assay: Caspase-3 ELISA in treated BJ-1 cells; type: cell-based, human; settings: BJ-1 cells treated at the IC50 value, mean ± SE, n = 3
Method: as §2, §3

Bcl-2 in BJ-1 cells = assay: Bcl-2 ELISA in treated BJ-1 cells; type: cell-based, human; settings: BJ-1 cells treated at the IC50 value, mean ± SE, n = 3
Method: as §2, §3

[6] = system: human lung cancer (A549) cell line; assay: MTT cytotoxicity, A549
MTT cytotoxicity, BJ-1 = settings: human, BJ-1 normal fibroblast cells
[7] = system: normal human fibroblast (BJ-1) cell line; assay: MTT cytotoxicity, BJ-1; settings: Homo sapiens, Fibroblast, 48 h, read-out: Median Inhibitory Concentration (IC50) BJ-1
[8] = system: human hepatocellular carcinoma (HepG-2) cell line; assay: MTT cytotoxicity, HepG-2
[9] = system: human colon cancer (Caco-2) cell line; assay: MTT cytotoxicity, Caco-2

Structure (SMILES): CC(c1cc2ccccc2s1)N(O)C(N)=O (centres unmarked) [Zileuton, reference compound]
- inhibition at 100 µg/mL [1]: 46.99 ± 0.13%

Structure (SMILES): O=C1O[C@H]([C@@H](O)CO)C(O)=C1O [Ascorbic Acid, reference compound]
- Antioxidant activity TAC [2]: 83.75 ± 0.13 mg gallic acid/g
- Antioxidant activity IRP [3]: 66.00 ± 0.13 µg/mL
- Scavenging activity DPPH Inhib. (%) (DPPH radical scavenging; at 100 µg/mL): 61.68 ± 0.12%
- Scavenging activity DPPH IC50 (DPPH radical scavenging): 4.50 ± 0.03 µg/mL
- Scavenging activity ABTS Inhib. (%) (ABTS radical scavenging; at 100 µg/mL): 65.43 ± 0.12%
- Scavenging activity ABTS IC50 (ABTS radical scavenging): 3.99 ± 0.04 µg/mL
- Scavenging activity NO Inhib. (%) (NO radical scavenging; at 100 µg/mL): 53.93 ± 0.12%
- Scavenging activity NO IC50 (NO radical scavenging): 5.24 ± 0.02 µg/mL

Structure (SMILES): COc1cccc2c1C(=O)c1c(O)c3c(c(O)c1C2=O)C[C@@](O)(C(=O)CO)C[C@@H]3O[C@H]1C[C@H](N)[C@H](O)[C@H](C)O1 [Doxorubicin, reference compound]
- Caspase-3 [4]: 306.04 ± 1.23 pg/mL
- Bcl-2 (Bcl-2 in HepG-2 cells): 4.00 ± 0.02 ng/mL
- Caspase-3 [5]: 265.13 ± 0.12 pg/mL
- Bcl-2 (Bcl-2 in Caco-2 cells): 2.04 ± 0.01 ng/mL
- Caspase-3 (caspase-3 in A549 cells): 247.96 ± 0.08 pg/mL
- Bcl-2 (Bcl-2 in A549 cells): 4.51 ± 0.01 ng/mL
- Caspase-3 (caspase-3 in BJ-1 cells): 200.43 ± 0.08 pg/mL
- Bcl-2 (Bcl-2 in BJ-1 cells): 2.72 ± 0.01 ng/mL
- viability at 6.25 µg/mL ([6]; A549): 77.4%
- viability at 12.5 µg/mL ([6]; A549): 51%
- viability at 25 µg/mL ([6]; A549): 24.3%
- viability at 50 µg/mL ([6]; A549): 12.1%
- viability at 100 µg/mL ([6]; A549): 5.17%
- IC50 ([6]; A549, 48 h, read-out: Median Inhibitory Concentration (IC50) A549): 14.4 ± 1.12 µg/mL (≈ 26.4 µM)
- viability at 48 h, 6.25 μg/mL (MTT cytotoxicity, BJ-1): 87.4%
- viability at 48 h, 12.5 μg/mL (MTT cytotoxicity, BJ-1): 68%
- viability at 48 h, 25 μg/mL (MTT cytotoxicity, BJ-1): 42.3%
- viability at 48 h, 50 μg/mL (MTT cytotoxicity, BJ-1): 20.1%
- viability at 48 h, 100 μg/mL (MTT cytotoxicity, BJ-1): 13.2%
- IC50 [7]: 22 ± 1.51 µg/mL (≈ 40.5 µM)
- viability at 6.25 µg/mL ([8]; HepG2): 74.4%
- viability at 12.5 µg/mL ([8]; HepG2): 59%
- viability at 25 µg/mL ([8]; HepG2): 34.3%
- viability at 50 µg/mL ([8]; HepG2): 18.1%
- viability at 100 µg/mL ([8]; HepG2): 9.17%
- IC50 ([8]; HepG2, 48 h, read-out: Median Inhibitory Concentration (IC50) HepG-2): 15.5 ± 1.98 µg/mL (≈ 28.5 µM)
- viability at 6.25 µg/mL ([9]; Caco-2): 70.2%
- viability at 12.5 µg/mL ([9]; Caco-2): 35.2%
- viability at 25 µg/mL ([9]; Caco-2): 5.64%
- viability at 50 µg/mL ([9]; Caco-2): 4.48%
- viability at 100 µg/mL ([9]; Caco-2): 1.3%
- IC50 ([9]; Caco-2, 48 h, read-out: Median Inhibitory Concentration (IC50) Caco-2): 11.1 ± 1.09 µg/mL (≈ 20.5 µM)
